Measured values reported in BindingDB's records for doi:10.1016/j.bmcl.2005.06.069 (National Health Research Institutes, 2005).

Target: Echovirus 9
Experiment: Inhibitory activity against Echovirus 9 using plaque reduction assay

IC50: > 25 µM
Compound: C[C@H](CCOc1ccc(-c2ccc(Cl)cc2)cc1)CCN1CCN(c2ccncc2)C1=O [1-[(S)-5-(4'-Chloro-biphenyl-4-yloxy)-3-methyl-pentyl]-3-pyridin-4-yl-imidazolidin-2-one]
